Data on three substances can be found in article PMC9741104, “Uptake of Flaxseed Dietary Linusorbs Modulates Regulatory Genes Including Induction of Heat Shock Proteins and Apoptosis” (Foods, 2022).

The nature of data set [1]: Circular dichroism secondary structure estimate in aqueous-DMSO solution. The class given is physicochemical. Particulars: CD spectra 260–200 nm, H2O/DMSO (3%, v/v), room temperature, CDNN deconvolution, triplicate. The protocol: Circular dichroism (CD) spectroscopy was performed on LO samples using a fresh solution of aqueous-dimethylsulfoxide solution (H2O/DMSO, 3%, v/v). CD measurements were completed using a Pistar 180 spectrometer (Applied Photophysics Ltd., Leatherhead, UK). Sample measurements were conducted at room temperature using a 0.01 cm cuvette (Hellma 106-QSP), and samples were scanned between 200–260 nm at 0.5 nm increments, with a scan rate of 10 nm/min. The instrument was calibrated using (+)-10-camphorsulfonic acid (290.5 nm wavelength). Experiments were performed in triplicate and are reported as mean ± standard deviation (SD). The secondary structure content of the samples was evaluated with the CDNN CD Spectroscopy Deconvolution software version 2.0.3.188 [30]. Molar ellipticities were calculated from molecular masses of 977.26–1074.37 Da for LOs. All spectra were corrected by background subtraction of H2O/DMSO (3%, v/v).

In a further data set the test system is Calu-3 cells. Put plainly: Microarray analysis of apoptosis-regulating genes (Rt2 Profiler PCR Super Array). The conditions noted are these: Calu-3 exposed to LOs. Details: key: +: genes over-expressed; NE: not expressed; –: genes under-expressed. The class given is cell-based, human. The protocol: Human bronchial epithelial adenocarcinoma cell line (Calu-3) was obtained from the American Type Culture Collection (ATCC, Manassas, VA, USA). Calu-3 cell line was cultured in plastic culture flasks containing Modified Eagle’s Medium (MEM) and supplemented with 10% fetal bovine serum, glutamine (4 mM), and penicillin (100 U/mL)-streptomycin (100 μg/mL) solution. Cells were cultured to a density of 10^6 cells/mL before adding fresh media (on day 3). The cells were then grown at 37 °C under 5% CO2, and 100% humidity.
Microarray analysis was performed to determine LO effects on the expression of genes involved in regulating apoptosis (i.e., pro- or anti-apoptotic genes) in Calu-3 cells. These analyses were using an Rt2 Profiler PCR Super Array kit (Super Arrays Bioscience Corp., Frederick, MD, USA) following manufacturer’s instructions and were recorded using an MX3005P LightCycler (Stratagene, La Jolla, CA, USA).

The subject of a further data set is HSP 70A. Put plainly: Induction of HSP 70A in nematodes (qRT-PCR). The class given is in vivo, Caenorhabditis elegans. The conditions noted are these: 2 h exposure, normalized to GAPDH, three repetitions. The procedure:
Gene expression of HSP 70A in nematodes was completed as described in Saini et al. (2011). Briefly, C. elegans N2 strains were cultured in the dark and at room temperature on sterile plates (10 mm; VWR, Edmonton, AB, Canada) containing 10% bacteriological agar (Sigma-Aldrich, Oakville, ON, Canada) and autoclaved Baker’s yeast (1%, w/v). C. elegans were sub-cultured every 14 days to fresh plates. Exposure experiments began using C. elegans, which were two weeks old. These cultures were exposed for 2 h to either DMSO (negative control) or various concentrations (0.1, 1.0, 10.0, and 100.0 µM) of LOB3 dissolved in DMSO. After exposure, these organisms were then re-cultured to assess the effects of LOB3 on HSP 70A gene expression. An unamended culture medium was used as the control treatment. After treatment, cultures were centrifuged at 400× g for 10 min at 4 °C. The pellet was retained and stored at −80 °C until further analysis.
RNeasy® Mini kits (Qiagen, Mississauga, ON, Canada) were used to extract total RNA from C. elegans lysates, according to the manufacturer’s instructions. RNA quality was confirmed and quantified using agarose gel electrophoresis and a Nano Drop® spectrophotometer (Thermo Fisher Scientific, Ottawa, ON, Canada), respectively. […] This was accomplished using a Stratagene MX3005P LightCycler (La Jolla, CA, USA). The glyceraldehyde-3-phosphate dehydrogenase gene (GAPDH; GenBank Accession No. X04818) was used as the reference housekeeping gene for qRT-PCR analyses. The primer pairs used during qRT-PCR are listed in Table 2. qRT-PCR reactions were performed using QuantiFast® SYBR® Green PCR kit (Qiagen, Mississauga, ON, Canada) following the manufacturer’s instructions. The thermocycler conditions included an initial denaturation at 95 °C for 5 min, followed by 45 cycles of denaturation at 95 °C for 30 s, annealing at 55 °C for 30 s and elongation at 60 °C for 45 s, to amplify the target gene. Relative gene expression levels were corrected against the GAPDH housekeeping gene using MXPro software. All analyses were completed in triplicate.
In general terms: Real-time PCR tracks product formation cycle by cycle.

The conditions of data set [2]: administered orally and intravenously, cited from earlier work. The source says: The combined characteristics of the strong immunosuppressive activity and low toxicity make LOB3 an immunosuppressive drug candidate. Other LOs and their analogs have also been investigated for their immunosuppressant activity. […] Similarly, [1–8-NαC], [1-(Rs, Ss)-MetO]-linusorb B1 (LO1OB1, also known as CLE) ...

Another data set concerns cancer C6 cells. The conditions noted are these: cited from earlier work.
The test system of data set [3] is breast cancer cell line MDA-MB-231. The conditions noted are these: doses lower than 10 µM; cited from earlier work.
The test system of a further data set is C. elegans. Put plainly: Lethality in nematode cultures. The class given is in vivo, Caenorhabditis elegans. The conditions noted are these: 100 µM, 2 h exposure.
Data set [4] in a line: LOs in pig adipose after flaxseed diet (HPLC-ToF-MS). Particulars: pig fed diet with 15% extruded flaxseed meal; fat biopsy at 10th rib, chloroform extract, HPLC-ToF-MS molecular ions.
From the text: Swine were fed a diet consisting of 15% flaxseed meal that was combined with other ingredients then extruded. Swine fat samples were taken from an 8 mm biopsy punch at the 10th rib, approximately 5 cm from the backbone [31]. The tissue samples were then extracted with chloroform and the extracts were dried, taken up in acetonitrile, and analyzed via direct loop injections using an Agilent 1100-series high-performance liquid chromatography (HPLC, Agilent, Santa Clara, CA, USA) equipped with a time-of-flight mass spectrometer (ToF-MS). Each sample extract was injected at a flow rate of 50 μL/min. The mobile phase consisted of 95% water: methanol containing 0.1% formic acid, and 5% acetonitrile.

Several values for one entry are separate records, joined by “and”; a condition that tells them apart may be missing. Identical values can stand only once. Like-named read-outs stand apart in the source and are kept apart here. Marks after values point to notes of the source that are not given here. Where only a bound is given, the exact number is not on record here.

For “[1–8-NαC], [1-(Rs, Ss)-MetO]- linusorb B1 [LO1OB1]”, in data set [1], the “Antiparallel (%)” value was 0.00%, the “Parallel (%)” value was 0.30%, the “Random Coil (%)” value is listed as 18.20% and the “α-Helix (%)” value is 75.30%. Further, the “β-Turn (%)” value in data set [1] is given as 6.20%. Also, in the data set on Calu-3 cells, the “BAK1 (BCL2 antagonist/killer 1) up- or down-regulated” value was “NE”, the “BCL2 (B-cell lymphoma 2) up- or down-regulated” value was “– ^c”, the “CASP10 (Caspase 10) up- or down-regulated” value (“CASP10” below) was “NE” and the “CIDEA (Cell death-inducing DFFA-like effector A) up- or down-regulated” value (“CIDEA” below) is on record as “+”. For the same substance, in the data set with Calu-3 cells, the “CIDEB (Cell death-inducing DFFA-like effector B) up- or down-regulated” value (shortened to “CIDEB”) was “+”, the “Fas (TNF receptor superfamily member 6) up- or down-regulated” value is listed as “+”, the “FasL (Fas ligand) up- or down-regulated” value was “NE” and the “HRK (Harakiri) up- or down-regulated” value is “+”. In addition, in the data set on Calu-3 cells, the “TNF (Tumor necrosis factor) up- or down-regulated” value was “+”, the “TP53 (Tumor protein p53) up- or down-regulated” value was “NE” and the “TP53BP2 (Tumor protein p53 binding protein 2) up- or down-regulated” value (“TP53BP2” for short) is listed as “+”.
Consider “[1–9-NαC], [1-(Rs, Ss)-MetO]- linusorb B2 [LO1OB2]”, for which, in data set [1], the “Antiparallel (%)” value is 0.00%; the “Parallel (%)” value is 0.40%; the “Random Coil (%)” value is recorded as 0.10%; the “α-Helix (%)” value is > 75% and 98.90%. Also, the “β-Turn (%)” value in data set [1] is 0.60%. Besides, in the data set on Calu-3 cells, the “BAK1 (BCL2 antagonist/killer 1) up- or down-regulated” value is “NE ^b”, the “BCL2 (B-cell lymphoma 2) up- or down-regulated” value is “–”, the “CASP10” value was “+” and the “CIDEA” value is on record as “+”. Also, in the data set with Calu-3 cells, the “CIDEB” value is listed as “+”, the “Fas (TNF receptor superfamily member 6) up- or down-regulated” value is on record as “+”, the “FasL (Fas ligand) up- or down-regulated” value is on record as “NE” and the “HRK (Harakiri) up- or down-regulated” value is “+”. In addition, in the data set with Calu-3 cells, the “TNF (Tumor necrosis factor) up- or down-regulated” value is “+”, the “TP53 (Tumor protein p53) up- or down-regulated” value was “+” and the “TP53BP2” value is “+”.
As to [1–9-NαC]-linusorb B3 [LOB3], in data set [1], the “Antiparallel (%)” value is on record as 0.00%, the “Parallel (%)” value is 0.3%, the “Random Coil (%)” value was 0.1% and the “α-Helix (%)” value was 98.90%. In data set [1], the “β-Turn (%)” value is 0.7%. Moreover, the “Increase in HSP 70A production” value with HSP 70A (0.1 µM) is recorded as 30%. Also, in the data set with HSP 70A (1.0 µM), the “Increase in HSP 70A production” value came out at 3.5 fold. In addition, the “Increase in HSP 70A production” value with HSP 70A (10.0 µM) worked out at 30%. Further, in data set [2] (mice), the Toxicity entry is listed as “non-toxic”. The Toxicity entry in data set [2] (rats) is listed as “non-toxic”. In the data set with Calu-3 cells, the “BAK1 (BCL2 antagonist/killer 1) up- or down-regulated” value is reported as “+ ^a”, the “CASP10” value was “NE”, the “CIDEA” value is recorded as “NE” and the “CIDEB” value is recorded as “+”. In the data set on Calu-3 cells, the “Fas (TNF receptor superfamily member 6) up- or down-regulated” value is “+”, the “FasL (Fas ligand) up- or down-regulated” value is reported as “+”, the “HRK (Harakiri) up- or down-regulated” value is given as “NE” and the “TNF (Tumor necrosis factor) up- or down-regulated” value is listed as “+”. Moreover, in the data set with Calu-3 cells, the “TP53 (Tumor protein p53) up- or down-regulated” value is “+” and the “TP53BP2” value is recorded as “+”. In the data set with cancer C6 cells (concentrations greater than 10.0 µM, changes in cell shape and reduction in cell numbers), the Cytotoxic effects entry is listed as “cytotoxic effects were observed”. Further, the Cytotoxic effects entry in the data set with cancer C6 cells (doses lower than 10 µM) was “no cytotoxic effects”. Also, the Cytotoxic effects entry in data set [3] is “no cytotoxic effects”. The Lethality entry with C. elegans was “lethal”. In addition, in data set [4], the “Distribution to adipose tissue” value is given as “trace amounts”.
